{"source": "patent US20210038589A1", "about": "“USES, COMPOSITIONS AND METHODS” (priority 2018, published 2021)", "key": {"[1]": {"test_system": "gamma oscillations in mouse hippocampal slices", "test": "Rescue of gamma oscillations previously degraded by Aβ in hippocampal slices (submerged chamber)", "type": "cell-based", "settings": "Aβ still present", "procedure": "Hippocampal slices were placed in a submerged recording chamber where gamma oscillations were induced by bath perfusion of 100 nM KA and allowed to stabilize for 20-30 min. Continuous recordings of LFP gamma oscillations were performed in 4 different conditions (FIG. 5). All groups were initially activated with Kainate. In a control group of slices oscillations were recorded for 40 min after stabilization without any other compound addition (control, n=5, grey). All other groups were perfused with 1 μM Aβ after stabilization of the oscillations for a minimum of 20 min. For these experiments the concentration of Aβ applied was increased to 1 μM in order to overcome the method-dependent lower signal amplitude due to the submerged recording conditions (8).\nHippocampal slices were placed on a submerged recording chamber where gamma oscillations were induced by bath perfusion of 100 nM Kainate and allowed to stabilize for 20-30 minutes. Continuous recordings of LFP gamma oscillations were performed in 3 different conditions. All groups were initially activated with kainate. In a control group of slices oscillations were recorded for 40 minutes after their stabilization without any other compound addiction (control, n=5; see FIG. 5). All the other groups were perfused with Aβ 1 μM after the stabilization of the oscillations for a minimum of 20 minutes."}, "[2]": {"test_system": "gamma oscillations in mouse hippocampal slices", "test": "Prevention of Aβ-induced degradation of kainate-induced gamma oscillations in hippocampal slices (interface chamber)", "type": "cell-based", "settings": "50 nM Aβ in last 15 min, 100 nM KA", "method": "Previously we have characterized the effects of acute Aβ on the hippocampal circuitry of WT mice. […] During the last 15 min 50 nM Aβ was added to the incubation solution. […] Control experiments were also performed by incubating slice just with ACSF for 1 h (with Aβ present for the last 15 min) or incubating just with ACSF for 1 h. […] Pmzd 10 μM: 9.95±1.82×10^-9V^2, n=10, p<0.0001 vs Aβ, FIGS. 4A,B,C,F, light and dark green, respectively). […] Horizontal sections (350 μm thick) of the ventral hippocampi of both hemispheres were prepared with a Leica VT1200S vibratome (Leica Microsystems). Immediately after cutting, slices were transferred into a humidified interface holding chamber containing standard ACSF (in mM): 124 NaCl, 30 NaHCO3, 10 glucose, 1.25 NaH2PO4, 3.5 KCl, 1.5 MgCl2, 1.5 CaCl2, continuously supplied with humidified carbogen. The chamber was held at 34° C. during slicing and subsequently allowed to cool down to room temperature ( 22° C.) for a minimum of 1 hour. Recordings were carried out in hippocampal area CA3 with borosilicate glass microelectrodes, pulled to a resistance of 3-7 MΩ. Local field potential (LFP) were recorded using microelectrodes filled with ACSF placed in CA3 stratum pyramidale. LFP oscillations were elicited by applying kainic acid (100 nM) to the extracellular bath, Interface chamber LFP recordings were performed with a 4-channel […] amplifier (University of Cologne, Germany). Submerged chamber LFP recordings and patch-clamp recordings were performed using a Multiclamp 700B (Molecular Devices, CA, USA). In order to maintain stable LFP oscillations all recordings were performed at 34° C. with a perfusion rate of 3-5 ml per minute of aerated ACSF containing 100 nM Kainate. The oscillations were allowed to stabilize for at least 20 minutes before any recordings were performed. Power spectra density plots (from 60 s long LFP recordings) were calculated in averaged Fourier-segments of 8192 points using Axograph X (Kagi, Berkeley, Calif., USA). […] Coefficient of rhythmicity (Cr) was calculated in order to assess the rhythmicity of gamma oscillations (26, 27) and was defined as Cr=(α-β)/(α+β) were α corresponds to the value of the height of the second peak and β to the first valley in the normalized autocorrelogram. […] Only recordings having Cr≥0.01 were considered rhythmic."}}}
{"smiles": "CC(C)[C@H]1c2ccc(F)cc2CC[C@@]1(CCN(C)CCCc1nc2ccccc2[nH]1)OC(=O)C1CC1", "note": "[NNC55-0396]", "values": [{"measurement": "gamma power after treatment application, relative to Aβ", "setting": "[1]; 10 μM compound applied after 20 min of 1 μM Aβ", "result": "1.85±0.15 of Aβ"}]}
{"smiles": "CC1CCN(CC[C@H]2CCCN2S(=O)(=O)c2cccc(O)c2)CC1", "note": "[SB-269970, ®-3-(2-(2-(4-methylpiperidin-1-yl)ethil)pyrrolidine-1-sulfonyl) phenol]", "values": [{"measurement": "gamma oscillation power", "setting": "[2]; 1 h incubation with 1 μM compound", "result": "1.47±0.24 ×10^−9V^2"}]}
{"smiles": "CCN1CCCC1CNC(=O)c1cc(S(N)(=O)=O)ccc1OC", "note": "(centres unmarked) [Sulpiride]", "values": [{"measurement": "gamma oscillation power", "setting": "[2]; 1 h incubation with 5 μM compound", "result": "2.23±0.52 ×10^−9V^2"}]}
{"smiles": "Clc1ccc(N2CCN(Cc3c[nH]c4ncccc34)CC2)cc1", "note": "[L745,870]", "values": [{"measurement": "gamma oscillation power", "setting": "[2]; 1 h incubation with 500 nM compound", "result": "1.61±0.52 ×10^−9V^2"}]}
{"smiles": "CC(C)(C)CCN1C[C@@H]2[C@@H](CNC(=O)c3cc(Cl)cc(Cl)c3)[C@@H]2C1", "note": "[ML-218]", "values": [{"measurement": "gamma power after treatment application, relative to Aβ", "setting": "[1]; 5 μM compound applied after 20 min of 1 μM Aβ", "result": "2.16±0.53 of Aβ"}]}
